Data set [1] in a line: Functional metabolic assay to measure dose dependent changes in cell viability from drug treatment in Vero E6/TMPRSS2 cells. Cells are treated with antiviral candidates that have been serially diluted. Cytotoxicity is reported via measuring absorbance and analysis of MTT/MTS assays in uninfected cells. The assay has been performed by Icahn School of Medicine at Mount Sinai. The class given is toxicity, cell-based, VeroE6/TMPRSS2. Conditions: chlorocebus sabaeus; for CC50: Vero E6/TMPRSS2 cells; for CC10: veroe6/tmprss2.

Data set [2] can be described thus: Functional assay to measure dose dependent changes in cell viability from drug treatment in Vero E6 miRFP670 cells (cotreated with P-gp inhibitor, CP100356) that are infected with Dengue virus type 2 New Guinea C. […] Cytotoxicity is reported via via analysis of DAPI count using high-content imager. The assay has been performed by KU Leuven. Conditions: chlorocebus sabaeus. The class given is toxicity, cell-based, Vero C1008.

The nature of data set [3]: Functional metabolic assay to measure dose dependent changes in cell viability from drug treatment in Vero E6/TMPRSS2 cells (cotreated with P-gp inhibitor, Elacridar). […] Cytotoxicity is reported via measuring absorbance and analysis of MTT/MTS assays in uninfected cells. The assay has been performed by Icahn School of Medicine at Mount Sinai. The class given is toxicity, cell-based, VeroE6/TMPRSS2. As to conditions: chlorocebus sabaeus, p-gp concentration 2 uM.

Data set [4] in a line: Functional CPE-based assay to measure dose dependent changes in cell viability from drug treatment in Huh-7 cells. Cells are treated with antiviral candidates that have been serially diluted. Cytotoxicity is reported via analysis of MTT/ MTS assays in uninfected cells. The assay has been performed by National Institute of Allergy and Infectious Diseases. The class given is toxicity. Conditions: human.

Data set [5] can be described thus: Functional assay to measure dose dependent changes in cell viability from drug treatment in Vero E6 miRFP670 cells that are infected with Dengue virus type 2 New Guinea C. Cells are treated with antiviral candidates that have been serially diluted. Cytotoxicity is reported via via analysis of DAPI count using high-content imager. The assay has been performed by KU Leuven. The class given is toxicity, cell-based, Vero C1008. As to conditions: chlorocebus sabaeus.

Data set [6] in a line: Functional CPE-based assay to measure dose dependent changes in cell viability from drug treatment in Vero E6 miRFP670 cells (cotreated with P-gp inhibitor, CP100356). Cells are treated with antiviral candidates that have been serially diluted. Cytotoxicity is reported via analysis of MTS assays in uninfected cells. The assay has been performed by KU Leuven. The class given is toxicity, Vero C1008. Conditions: chlorocebus sabaeus, Vero E6 miRFP670 cells, with CP100356 (P-gp inhibitor, concentration not stated). (Tetrazolium assays rely on reduction of a dye to a coloured formazan, in cell work by metabolically active cells.)

Data set [7] in a line: Functional CPE-based assay to measure dose dependent changes in cell viability from drug treatment in Vero E6 miRFP670 cells. Cells are treated with antiviral candidates that have been serially diluted. Cytotoxicity is reported via analysis of MTS assays in uninfected cells. The assay has been performed by KU Leuven. The class given is toxicity, Vero C1008. As to conditions: chlorocebus sabaeus.

Data set [8] in a line: Functional metabolic assay to measure dose dependent changes in cell viability from drug treatment in HeLa cells. Cells are treated with antiviral candidates that have been serially diluted. Cytotoxicity is reported via analysis of MTT/MTS assays in uninfected cells. The assay has been performed by KU Leuven. The class given is toxicity, cell-based. Conditions: human.
[9] abbreviates: vero c1008, p-gp concentration 500 nM.
The mark [10] stands for this setting: Vero E6/TMPRSS2 cells, with Elacridar (P-gp inhibitor, concentration not stated).
[11] abbreviates: with CP100356 (P-gp inhibitor, concentration not stated), p-gp concentration 500 nM.

Values joined by “and” are separate entries in the source; they are usually repeats but may differ in a detail not shown here. Equal entries are not always repeated.

Broadly, the CC50 is the concentration that lowers cell viability or growth by half.

With `c1cc(C2CCN(Cc3c[nH]c4ccccc34)CC2)c2ccncc2c1`, the CC50 in data set [1] was over 50 µM; in data set [2] (setting [9]), over 50 µM; in data set [3] (setting [10]), over 50 µM; in data set [4], 32 µM. In addition, the CC10 in data set [1] and in data set [3] (veroe6/tmprss2) was over 50 µM throughout.
`O=C(Nc1ccc2c(c1)CNC2)c1cc(Cl)cc2[nH]ncc12`: the CC50 in data set [5] is 6.72 µM; in data set [2] (vero c1008, p-gp concentration 100 nM), 5.47 µM; in data set [3] (setting [10]), under 0.023 µM; in data set [6] (p-gp concentration 100 nM), over 50 µM; in data set [7] (Vero E6 miRFP670 cells) it was 49.7 µM; in data set [7] (vero c1008) it was over 50 µM. The CC10 in data set [3] (veroe6/tmprss2) was over 50 µM.
`O=C(Nc1ccc2c(c1)CNC2)c1ccnc2[nH]ccc12`: the CC50 in data set [8] (HeLa cells) was over 50 µM. The CC10 in data set [8] (hela) was over 50 µM.
With `NCc1ccc(-c2ncc(OCC3CCNCC3)nc2-c2ccc(-c3ccoc3)cc2)cc1`, the CC50 in data set [1] was over 50 µM; in data set [2] (setting [11]), 1.7 µM; in data set [3] (setting [10]), 49.9 µM; in data set [4] it was 5.5 µM. Further, the CC10 in data set [1] was over 50 µM; in data set [3] (veroe6/tmprss2) it was 39.762 µM.
In the case of `CC(C)CNC(=O)c1cc(Cl)c(F)cc1NS(=O)(=O)c1ccc(Oc2ccccc2Cl)cc1`, the CC50 in data set [1] is over 50 µM; in data set [2] (setting [9]), 5.35 µM; in data set [2] (setting [11]) it was over 10 µM; in data set [3] (setting [10]) it was 49.4 µM; in data set [3] (veroe6/tmprss2), 38.1 µM; in data set [4] it was 3.1 µM. For the same compound, the CC50 was 4.96 µM in data set [7] (Vero E6 miRFP670 cells); 5.79 µM and 3.21 µM in data set [7] (vero c1008). For the same compound, in data set [1], the CC10 was over 50 µM.
As for `COc1cc(N[C@@H](C(=O)c2c[nH]c3ccc(OC(F)(F)F)cc23)c2ccc(Cl)cc2OC)cc(S(C)(=O)=O)c1`, the CC50 in data set [1] was over 10 µM; in data set [3] (setting [10]) it was over 10 µM; in data set [6] (p-gp concentration 500 nM), 1.49 µM; in data set [4], 5 µM. The CC10 in data set [1] is over 10 µM.
Turning to `O=C(Nc1ccc2c(c1)B(O)OC2)c1cccc(OCc2c(Cl)cccc2Cl)c1`, the CC50 was over 50 µM in data set [1], over 10 µM in data set [2] (setting [11]) and 1.9 µM in data set [4]. The CC10 in data set [1] was over 50 µM.
As to `CC(C)CNC(=O)c1cc(Cl)ccc1NS(=O)(=O)c1ccc(Oc2ccccc2Cl)cc1`, the CC50 in data set [1] is over 50 µM; in data set [2] (setting [11]), over 10 µM; in data set [3] (veroe6/tmprss2), over 50 µM; in data set [4], 6.5 µM; in data set [7] (Vero E6 miRFP670 cells) it was 4.76 µM. The compound also had a CC10 in data set [1] of over 50 µM.
